Test results reported in patent US9273095B2, “Antibiotic peptide and preparation method therefor and application therefor” (priority 2011, dated 2016).
Marks after values point to notes of the source that are not given here. Non-standard residues stand in square brackets, D forms with d. Residues, ends and D or L forms follow the SMILES beside them.

Legend:
Format in all cases: in vivo, ICR mice
[1] = system: Candida albicans and Escherichia; experiment: Therapeutic experiment of injection on mice with multiple mixed infections, survival time; conditions: for Mean survival Time / average survival time: observed fourteen days; for Mean survival Time / Mortality of mice in different days after infection: n = 20; for average survival time: injection through caudal vena twice a day for three days
Experimental: (§1) There are 60 male and 60 female ICR mice with the weight ranging from 18 g to 22 g. According to their weight, they are randomly divided into 6 groups of 20 mice: blank control group, negative control group, Levofloxacin positive control group, and high, middle and low dose of PL-18 (SEQ ID NO: 1) group. With trinitrophenal marking method, all the mice are raised with ordinary animal feeds in the ordinary animal houses and they can drink water freely. Alternating of light and dark is conducted every 12 hours.
2. Infected Strains: Candida albicans and Escherichia
PL-18 (SEQ ID NO: 1) freeze-dried powder injection (supplied by Jiangsu ProteLight Pharmaceutical & Biotechnology Co., LTD.), Levofloxacin Hydrochloride and Sodium Chloride Injection (supplied by Yangtze River Pharmaceutical Group) and 0.9% Sodium Chloride Injection (supplied by Chifeng Rongjitang Pharmaceutical CO., Ltd.)
(§2) (1) The preparation of bacterial suspension is the same as above.
(2) The Candida albicans suspension cultured overnight is diluted to 1×10^6CFU/ml with Sodium Chloride and 5×10^5CFU of which is injected into abdominal cavity of every mouse; the Escherichia suspension cultured overnight is diluted to 2×10^8CFU/ml and 1×10^7CFU of which is injected into abdominal cavity of every mouse to make model with mixed infections.
(3) The blank control group is injected with normal saline into their abdominal cavity, the positive control group is injected with Levofloxacin into their abdominal cavity.
(4) Administration: The drugs are administered according to weight right after the model is ready. All the groups except the blank and the infected negative control group are injected with different dosage of different injections through caudal vena twice a day successively for three days, and they are observed for fourteen days.
(§3) (5) Observe death of the animals and record their survival time.

[2] = system: Pseudomonas aeruginosa; experiment: Therapeutic test of injection on mice with systemic infection, survival time; conditions: for Mean survival Time: observed fourteen days; for Mean survival Time / Mortality of mice in different days after infection: n = 10
Source text: as §1, with “30” for “60”, “10” for “20”, “PL-13” for “and high, middle and low dose of PL-18”, “1) high dose group, PL-13 (SEQ ID NO: 1) middle dose group and PL-13 (SEQ ID NO: 1) low dose” for “1)”, “group. Each group is raised in the same plastic case.” for “group.”
(§4) 2. Infected Strains: Pseudomonas aeruginosa and Staphylococcus aureus
(§5) PL-18 (SEQ ID NO: 1) freeze-dried powder injections (supplied by Jiangsu ProteLight Pharmaceutical & Biotechnology Co., LTD.), Levofloxacin Hydrochloride and Sodium Chloride Injection (supplied by Yangtze River Pharmaceutical Group) and 0.9% Sodium Chloride Injection (supplied by Chifeng Rongjitang Pharmaceutical CO., Ltd.)
as §2
(§6) (2) The Pseudomonas aeruginosa suspension cultured overnight is diluted to 1×10^9CFU/ml. The Staphylococcus aureus suspension cultured overnight is diluted to 1×10^8CFU/ml. They are all applied in reserve.
(§7) (3) Except the blank control group, every other mouse is injected with 0.2 ml Pseudomonas aeruginosa suspension with the concentration of 1×10^9CFU/ml or 0.2 ml Staphylococcus aureus suspension with the concentration of 1×10^8CFU/ml intraperitoneally to make model.
(§8) (4) Administration: Inject the drugs according to weight right after the model is ready. All the groups excepting the blank and the negative infected group are injected with different dosage of different injections through caudal vena twice a day successively for three days, and they are observed for fourteen days.
as §3

[3] = system: Staphylococcus aureus; experiment: as above; conditions: for Mean survival Time: observed fourteen days; for Mean survival Time / Mortality of mice in different days after infection: n = 10
Source text: as §1, with “30” for “60”, “10” for “20”, “PL-13” for “and high, middle and low dose of PL-18”, “1) high dose group, PL-13 (SEQ ID NO: 1) middle dose group and PL-13 (SEQ ID NO: 1) low dose” for “1)”, “group. Each group is raised in the same plastic case.” for “group.”
as §4, §5, §2, §6, §7, §8, §3

[4] = 30 mg/kg twice a day for three days
[5] = day 1, 30 mg/kg twice a day for three days
[6] = day 2, 30 mg/kg twice a day for three days
[7] = day 3, 30 mg/kg twice a day for three days
[8] = day 4, 30 mg/kg twice a day for three days
[9] = day 5, 30 mg/kg twice a day for three days
[10] = 0.2 mg/kg (low) caudal vena twice a day for three days
[11] = 1 mg/kg (middle) caudal vena twice a day for three days
[12] = 5 mg/kg (high) caudal vena twice a day for three days
[13] = day 1, 0.2 mg/kg (low) caudal vena twice a day for three days
[14] = day 1, 1 mg/kg (middle) caudal vena twice a day for three days
[15] = day 1, 5 mg/kg (high) caudal vena twice a day for three days
[16] = day 2, 0.2 mg/kg (low) caudal vena twice a day for three days
[17] = day 2, 1 mg/kg (middle) caudal vena twice a day for three days
[18] = day 2, 5 mg/kg (high) caudal vena twice a day for three days
[19] = day 3, 0.2 mg/kg (low) caudal vena twice a day for three days
[20] = day 3, 1 mg/kg (middle) caudal vena twice a day for three days
[21] = day 3, 5 mg/kg (high) caudal vena twice a day for three days
[22] = day 4, 0.2 mg/kg (low) caudal vena twice a day for three days
[23] = day 4, 1 mg/kg (middle) caudal vena twice a day for three days
[24] = day 4, 5 mg/kg (high) caudal vena twice a day for three days
[25] = day 5, 0.2 mg/kg (low) caudal vena twice a day for three days
[26] = day 5, 1 mg/kg (middle) caudal vena twice a day for three days
[27] = day 5, 5 mg/kg (high) caudal vena twice a day for three days

`C[C@H]1COc2c(N3CCN(C)CC3)c(F)cc3c(=O)c(C(=O)O)cn1c23` [Levofloxacin, levofloxacin, reference compound] was tested, and the Mean survival Time ([1]; 30 mg/kg) was 3.9* day, the “Mortality of mice in different days after infection” value (from here on “Mortality of mice in different days”) ([1]; day 1, 30 mg/kg) was 8 and the “Mortality of mice in different days” value ([1]; day 2, 30 mg/kg) was 6. The “Mortality of mice in different days” value ([1]; day 3, 30 mg/kg) was 2, the “Mortality of mice in different days” value ([1]; day 4, 30 mg/kg) was 0 and the “Mortality of mice in different days” value ([1]; day 5, 30 mg/kg) was 0. The “Mean survival Time” value [2, 4] was 6.4** day, the “Mortality of mice in different days” value [2, 5] was 4 and the “Mortality of mice in different days” value [2, 6] was 2. The “Mortality of mice in different days” value [2, 7] was 0, the “Mortality of mice in different days” value [2, 8] was 0 and the “Mortality of mice in different days” value [2, 9] was 0. The “Mean survival Time” value [3, 4] was 5.4** day, the “Mortality of mice in different days” value [3, 5] was 5 and the “Mortality of mice in different days” value [3, 6] was 2. The “Mortality of mice in different days” value [3, 7] was 0, the “Mortality of mice in different days” value [3, 8] was 0 and the “Mortality of mice in different days” value [3, 9] was 0.
For `CC(=O)N[C@H](Cc1ccccc1)C(=O)N[C@H](CCCCN)C(=O)N[C@H](CCCCN)C(=O)N[C@H](CC(C)C)C(=O)N[C@H](CCCCN)C(=O)N[C@H](CCCCN)C(=O)N[C@H](CC(C)C)C(=O)N[C@H](Cc1ccccc1)C(=O)N[C@H](CO)C(=O)N[C@H](CCCCN)C(=O)N[C@H](CC(C)C)C(=O)N[C@H](Cc1c[nH]c2ccccc12)C(=O)N[C@H](CC(N)=O)C(=O)N[C@H](Cc1c[nH]c2ccccc12)C(=O)N[C@H](CCCCN)C(N)=O` [PL-18] (Ac-[dF][dK][dK][dL][dK][dK][dL][dF][dS][dK][dL][dW][dN][dW][dK]-NH2), the Mean survival Time [1, 10] was 4.4* day, the Mean survival Time [1, 11] was 5.7** day and the “curative effect on mice with multiple mixed infection (in words)” value ([1]; 1 mg/kg dosage injection) was “best curative effect”. For the same compound, the Mean survival Time [1, 12] was 5.3** day, the “Mortality of mice in different days” value [1, 13] was 4 and the “Mortality of mice in different days” value [1, 14] was 5. The “Mortality of mice in different days” value [1, 15] was 5, the “Mortality of mice in different days” value [1, 16] was 4 and the “Mortality of mice in different days” value [1, 17] was 4. The “Mortality of mice in different days” value [1, 18] was 5, the “Mortality of mice in different days” value [1, 19] was 5 and the “Mortality of mice in different days” value [1, 20] was 3. The “Mortality of mice in different days” value [1, 21] was 2, the “Mortality of mice in different days” value [1, 22] was 2 and the “Mortality of mice in different days” value [1, 23] was 2. The “Mortality of mice in different days” value [1, 24] was 1, the “Mortality of mice in different days” value [1, 25] was 2 and the “Mortality of mice in different days” value [1, 26] was 0. For the same compound, the “Mortality of mice in different days” value [1, 27] was 2, the average survival time ([1]; high dosage group) was 5.3 days and the average survival time ([1]; low dosage group) was 4.4 days. For the same compound, the average survival time ([1]; middle dosage group) was 5.7 days, the “Mean survival Time” value [2, 10] was 6.7** day and the “Mean survival Time” value [2, 11] was 7.7** day. The “Mean survival Time” value [2, 12] was 8.6** day, the “Mortality of mice in different days” value [2, 13] was 0 and the “Mortality of mice in different days” value [2, 14] was 0. The “Mortality of mice in different days” value [2, 15] was 0, the “Mortality of mice in different days” value [2, 16] was 2 and the “Mortality of mice in different days” value [2, 17] was 1. For the same compound, the “Mortality of mice in different days” value [2, 18] was 1, the “Mortality of mice in different days” value [2, 19] was 1 and the “Mortality of mice in different days” value [2, 20] was 2. The “Mortality of mice in different days” value [2, 21] was 2, the “Mortality of mice in different days” value [2, 22] was 2 and the “Mortality of mice in different days” value [2, 23] was 2. For the same compound, the “Mortality of mice in different days” value [2, 24] was 2, the “Mortality of mice in different days” value [2, 25] was 2 and the “Mortality of mice in different days” value [2, 26] was 1. For the same compound, the “Mortality of mice in different days” value [2, 27] was 0, the “anti-infection effect (in words)” value ([2]; high, middle and low dose injection, systemic infection of Pseudomonas aeruginosa) was “very good” and the “Mean survival Time” value [3, 10] was 6.3** day. The “Mean survival Time” value [3, 11] was 7.3** day, the “Mean survival Time” value [3, 12] was 9.9** day and the “Mortality of mice in different days” value [3, 13] was 1. For the same compound, the “Mortality of mice in different days” value [3, 14] was 1, the “Mortality of mice in different days” value [3, 15] was 0 and the “Mortality of mice in different days” value [3, 16] was 2. For the same compound, the “Mortality of mice in different days” value [3, 17] was 2, the “Mortality of mice in different days” value [3, 18] was 1 and the “Mortality of mice in different days” value [3, 19] was 1. The “Mortality of mice in different days” value [3, 20] was 1, the “Mortality of mice in different days” value [3, 21] was 1 and the “Mortality of mice in different days” value [3, 22] was 2. For the same compound, the “Mortality of mice in different days” value [3, 23] was 1, the “Mortality of mice in different days” value [3, 24] was 1 and the “Mortality of mice in different days” value [3, 25] was 1. The “Mortality of mice in different days” value [3, 26] was 1, the “Mortality of mice in different days” value [3, 27] was 2 and the “anti-infection effect (in words)” value ([3]; high, middle and low dose injection, systemic infection of Staphylococcus aureus) was “very good”.
